The EC50 is the concentration needed to bring the measured effect to its halfway point. By CC50 is commonly meant the concentration giving 50% cytotoxicity. High values mean better tolerance by the cells, low ones harm at low concentration. Broadly, the Cmax is the peak of the concentration-time curve.

These results are taken from US11926645B2, “Compounds and methods for treatment of viral infections” (priority 2020, dated 2024).

Data set [1] deals with RSV-Fluc (Respiratory Syncytial virus strain A2 containing the firefly luciferase reporter). Briefly: microbe, parasite or virus in culture. It counts as cell-based. Particulars: human respiratory syncytial virus, 72 h, NHBE cells, three days.
The next data set concerns the target T1, CES1 (Homo sapiens, UniProt P23141).
T1 construct: purchased
T1 sequence (P23141 18-567): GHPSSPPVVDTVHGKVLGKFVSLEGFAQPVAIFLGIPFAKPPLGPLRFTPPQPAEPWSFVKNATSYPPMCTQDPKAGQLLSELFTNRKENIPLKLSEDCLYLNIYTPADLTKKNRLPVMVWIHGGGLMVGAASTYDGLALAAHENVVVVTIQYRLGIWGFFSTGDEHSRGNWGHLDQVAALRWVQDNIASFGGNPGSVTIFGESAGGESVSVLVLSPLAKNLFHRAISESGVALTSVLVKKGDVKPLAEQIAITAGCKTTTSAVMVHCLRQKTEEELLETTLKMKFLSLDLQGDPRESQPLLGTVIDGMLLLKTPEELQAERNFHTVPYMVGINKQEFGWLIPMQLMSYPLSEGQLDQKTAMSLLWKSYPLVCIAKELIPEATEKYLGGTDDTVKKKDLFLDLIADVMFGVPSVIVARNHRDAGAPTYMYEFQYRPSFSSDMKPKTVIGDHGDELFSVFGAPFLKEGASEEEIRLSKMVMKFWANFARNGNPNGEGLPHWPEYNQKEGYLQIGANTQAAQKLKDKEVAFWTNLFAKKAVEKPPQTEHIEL
Briefly: CES1/2 stability, CES1. The data set is classed as in vitro ADME. Particulars: CES1 Supersome preparation; Supersome preparations, CES 1.5 mg/ml, 2 μM substrate, pH 7.4, 37° C.; read-out: CES1 T1/2. As to the method:
(§1) Test compounds or positive control substrates (oseltamivir for CES1 enzymes or procaine for CES2) were incubated with individual Supersome preparations (final CES concentration 1.5 mg/ml) in 0.1 M potassium phosphate buffer (pH 7.4) at 37° C. Substrates were added to a final concentration of 2 μM to initiate the reaction. The final incubation volume was 250 μL. Aliquots were removed after incubation for 0, 10, 30, 60 and 120 min. The reactions were stopped by the addition of IS/Q. Following protein precipitation and centrifugation, 150 μL of supernatant was diluted with an equal volume of water prior to LC-MS analysis. For procaine 150 μL of supernatant was dried down and reconstituted with 250 μL water. All samples were analyzed by LC-MS and the PAR values were used for quantification.

A short description of a further data set: Plasma stability. Particulars: human.
Data set [2] in a line: in vitro. It counts as in vitro ADME, Human. Particulars: human, s9, pH 7.4. How it is done:
(§2) Duplicate aliquots of test compound or positive control substrate (GS-7340) were added to S9 stock diluted with 100 mM phosphate buffered saline, pH 7.4, to obtain a protein concentration of 1.0 mg/mL. The S9 metabolic reactions were initiated by the addition of the substrates to the S9 reaction mixture to a final concentration of 2 μM. At 0, 10, 20, 30, 60 and 120 min, 25 μL aliquots of the reaction mixture were transferred to plates containing 225 μl of IS/Q solution. After quenching, the plates were centrifuged at 3000×g for 30 minutes, and 150 μL aliquots of each supernatant were diluted with 150 μL water. Aliquots (10 μL) of the diluted supernatant were analyzed on a Thermo Q-Exactive mass spectrometer as described below.
(§3) Quantification of test compounds and controls was performed by analyte/internal standard peak area ratio (PAR) values measured on a Thermo Q-Exactive mass spectrometer coupled to a Dionex UltiMate 3000 HPLC with a Leap Technologies HTC PAL autosampler. The column used was a Thermo Hypersil GOLD (1.9 μm particle size, 2.1×50 mm). Mobile phase A consisted of 0.1% (v/v) formic acid in water. Mobile phase B consisted of 0.1% (v/v) formic acid in acetonitrile. Elution of analytes was achieved by a series of linear gradients of acetonitrile in water containing 0.1% (v/v) formic acid. The mass spectrometer was calibrated on a weekly basis and mass tolerance of 5 ppm was used.

Data set [3] can be described thus: in vitro. It counts as cell-based. Particulars: human. As to the method:
The cytotoxicity of compounds was determined in A549-hACE2 cells in the following manner. Compounds (200 nL) were spotted onto 384-well Grenier plates prior to seeding 5000 A549-hACE2 cells/well in a volume of 40 μL culture medium. The plates were incubated at 37° C. for 48 hours with 5% CO2. On day 2, 40 μL of CellTiter-Glo (Promega) was added and mixed 5 times.

The target of the next data set is T2, CES2 (Homo sapiens, UniProt O00748).
T2 construct: purchased
T2 sequence (O00748 27-559): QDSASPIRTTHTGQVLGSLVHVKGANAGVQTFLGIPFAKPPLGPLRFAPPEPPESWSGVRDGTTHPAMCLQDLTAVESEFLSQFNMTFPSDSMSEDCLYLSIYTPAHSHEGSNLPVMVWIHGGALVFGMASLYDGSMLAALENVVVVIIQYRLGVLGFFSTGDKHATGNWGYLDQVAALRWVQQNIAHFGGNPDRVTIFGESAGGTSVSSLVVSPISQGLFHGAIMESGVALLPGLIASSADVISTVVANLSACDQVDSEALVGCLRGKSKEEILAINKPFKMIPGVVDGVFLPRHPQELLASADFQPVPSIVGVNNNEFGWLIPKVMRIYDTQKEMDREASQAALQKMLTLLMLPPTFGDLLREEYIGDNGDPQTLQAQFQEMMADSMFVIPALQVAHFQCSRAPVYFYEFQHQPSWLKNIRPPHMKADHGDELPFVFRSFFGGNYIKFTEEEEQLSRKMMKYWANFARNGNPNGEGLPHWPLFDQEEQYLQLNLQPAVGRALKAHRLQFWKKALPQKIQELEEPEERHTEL
Kind of data set: CES1/2 stability, CES2. It counts as in vitro ADME. Particulars: CES2 Supersome preparation; Supersome preparations, CES 1.5 mg/ml, 2 μM substrate, pH 7.4, 37° C.; read-out: CES2 T1/2. As to the method: as §1

Data set [4] can be described thus: in vitro. It counts as in vitro ADME. Particulars: s9, pH 7.4. As to the method: as §2, with “mM potassium” for “mM”, “phosphate buffer,” for “phosphate buffered saline,”, “of 2.4” for “of 1.0”, “At 2, 12, 25, 45, 65” for “At 0, 10, 20, 30, 60”, “and 90” for “and 120”, “150 μl,” for “150 μL”
as §3

For a further data set, the system named is SARS-CoV-2. The arrangement: species or system ferrets. Particulars: in vivo, po.
In the next data set the test system is RSV strain A2. Briefly: RSV antiviral assay (Hep2), EC50-Hep2/B1-384. It counts as cell-based. Particulars: human respiratory syncytial virus, HEp-2, 96 h; Hep2 cells, 4 days, Cell-Titer Glo.
The test system of the next data set is SARS-CoV-2-Nluc viruses. Kind of data set: microbe, parasite or virus in culture. The data set is classed as cell-based. Particulars: Severe acute respiratory syndrome coronavirus 2, 48 h; read-out: SARS-CoV2 EC50.
For data set [5] the following is noted: male, Sprague-Dawley, rat, in vivo, po, 6 mg/kg.
The format of data set [6] is in vivo, Sprague-Dawley rats. Particulars: male, Sprague-Dawley, rat, in vivo, po, 12.7 mg/kg. How it is done:
β-d-N^4-hydroxycytidine (NHC) was dosed orally by gavage to male Sprague-Dawley rats (n=3) at 10 mg/kg in 3.9% citric acid and 96.1% water, pH 2.8; Molnupiravir at 12.7 mg/kg in 2.5% kolliphor RH 40, 10% polyethylene glycol 300 and 87.5% water, pH 5.3. […]

Data set [7] relates to SARS-CoV-2 2019-nCoV/USA-WA1/2020. The data set is classed as in vivo. Particulars: in vivo.

Like-named read-outs stand apart in the source and are kept apart here.

Regarding `CC(C)C(=O)OC[C@H]1O[C@@](C#N)(c2ccc3c(N)ncnn23)[C@H](O)[C@@H]1O` [Compound 15, ((2R,3S,4R,5R)-5-(4-aminopyrrolo[2,1-f][1,2,4]triazin-7-yl)-5-cyano-3,4-dihydroxytetrahydrofuran-2-yl)methyl isobutyrate], the figures for the EC50 (in data set [1]; with RSV strain A2; in the data set on SARS-CoV-2-Nluc viruses) were 588 nM, 407 nM and 1030 nM, respectively. Also, the half-life at 2 μM on CES1 is 6 min; in the data set “Plasma stability”, 29 min; in the data set “in vitro [2]” it was 69 min; on CES2 it was below 1 min; in the data set “in vitro [4]”, 1.2 min. Further, in “in vitro [3]”, the CC50 at 48 h was above 50000 nM. For the same compound, the “Change from vehicle, nasal lavage AUC(0-96) PFU/mL” value was −2.21 log10 in the data set on SARS-CoV-2 (5 mg/kg), −2.50 log10 with SARS-CoV-2 (10 mg/kg) and −2.80 log10 in the data set with SARS-CoV-2 (40 mg/kg). In addition, the “Change from vehicle, nasal lavage AUC(0-96) RNA copies/μL” value in the data set on SARS-CoV-2 (5 mg/kg) is −1.33 log10; in the data set with SARS-CoV-2 (10 mg/kg), −1.51 log10; in the data set on SARS-CoV-2 (40 mg/kg), −1.91 log10. Also, the “Change from vehicle, nasal turbinate terminal PFU/mL” value is on record as −1.68 log10 with SARS-CoV-2 (5 mg/kg), −2.20 log10 in the data set with SARS-CoV-2 (10 mg/kg) and −3.79 log10 with SARS-CoV-2 (40 mg/kg). Further, the “Change from vehicle, nasal turbinate terminal RNA copies/μL” value in the data set with SARS-CoV-2 (5 mg/kg) is given as −2.14 log10; in the data set with SARS-CoV-2 (10 mg/kg) it was −1.79 log10; with SARS-CoV-2 (40 mg/kg), −4.01 log10. This compound came in with a Cmax in data set [5] of 2.1 µM.

As to `CC(C)C(=O)OC[C@H]1O[C@@H](n2ccc(NO)nc2=O)[C@H](O)[C@@H]1O` [Molnupiravir, reference compound], on CES1, the half-life at 2 μM fell in the range of 30 to 51 min. For the same compound, in [6], the Cmax was found to be 4.09 µM, the “NHC AUCinf.” value came out at 8.96 µM·h, the “NHC F % (based on NHC mg-eq dose)” value is on record as 39.1% and the “NHC F % (based on molnupiravir dose)” value was 30.8%. This compound displayed a half-life at 2 μM in “Plasma stability” of 51 min. This compound also gave a half-life at 2 μM in “in vitro [2]” above 700 min. In addition, in [7], the “Clinical signs versus vehicle animals” value was “No significant differences in clinical signs”; the “Shed virus load (nasal lavages) versus vehicle” value is given as “lower in all treated animals than in the vehicle group”; the “Viral RNA copies in nasal lavages and turbinates versus vehicle” value is reported as “statistically significant mean reduction”; the “Virus burden in the turbinates” value was “reduced burden in the turbinates”. Also, the half-life at 2 μM at CES2 was determined as 9.8 min. For the same compound, in the data set on SARS-CoV-2 (5 mg/kg), the “Change from vehicle, nasal lavage AUC(0-96) PFU/mL” value is −2.34 log10; the “Change from vehicle, nasal lavage AUC(0-96) RNA copies/μL” value was −0.87 log10; the “Change from vehicle, nasal turbinate terminal PFU/mL” value was −3.79 log10; the “Change from vehicle, nasal turbinate terminal RNA copies/μL” value is reported as −2.68 log10.
